Structures can show the parent of a compound that is named as a salt.
Experiments:
B16 = assay: Proliferation test, B16 melanoma cells; assay type: cell-based, murine
Experimental: (§1) Cell lines: Human prostate carcinoma (PC-3), human colon carcinoma (HT-29), murine melanoma (B-16) and its drug resistant subclone (B-16 MDR), mouse fibroblasts (3T3), myeloid leukemia (HL 60) and its drug resistant subclone (HL 60 MX2), endometrium cell line (MES SA) and its drug resistant subclone (MES DX5), jurkat T lymphoma and monocyte leukemia (U-937), were used in this study.
(§2) Proliferation of cancer and normal cells: Proliferation was measured by neutral red assay or by a fluorometric assay quantitating DNA content. In the neutral red assay, the neutral red is absorbed by lysosomes, thus causing coloring of living cells. Quantitative analysis is performed by colorimetric assay (ELISA reader at 550 nm). In the fluorometric assay, alamar blue is used as a redox indicator. Alamar blue fluorescence was measured at an excitation wavelength of 544 nm and an emission wavelength of […] (FLUOstar BMG Lab Technologies, Offenburg, Germany).
(§3) The cells were sub-cultured and the tested compounds were added thereto in increasing concentrations. The IC50 values were determined by linear regression of the survival percentage of the cells.

MES SA DX5 (MDR) = assay: Proliferation test, MES SA DX5 (MDR) cells; assay type: cell-based; settings: Homo sapiens, linear regression of survival percentage
Experimental: as §1, §2, §3

3T3 = assay: Proliferation test, 3T3 fibroblasts; assay type: cell-based; settings: Mus musculus, NIH3T3; linear regression of survival percentage
Experimental: as §1, §2, §3

rats [1] = assay: Catalepsy in rats, “piano” test, oral administration; assay type: in vivo, rat
Experimental: To this end, the induced catalepsy, the prolactin blood levels and the animal behavior were measured as described hereinabove, following oral administration of either AN 168 or perphenazine alone to rats. Animals, divided 5 per cage, were treated by oral administration of perphenazine or AN-168 dissolved in 1% lactic acid. Control animals received vehicle (lactic acid) only.
The catalepsy induced by oral administration of various concentrations of AN 168 and perphenazine was measured by the “wall” test and the “piano” test described hereinabove. The time course of catalepsy was measured 4-24 hours following oral administration of 2.5, 5, 10 and 20 mg/kg perphenazine and respective equimolar doses of 3.5, 7, 14 and 28 mg/kg AN-168. The total catalepsy represents the sum of average catalepsy per treated group during the 4-24 hours of follow-up.

rats [2] = assay: Behavioral criteria: sedation and mobility score in rats; settings: score 0-3; for Sedation score: oral, 4-6 hours after treatment
Experimental: The effect of the administration of the tested compound on animals behavior was measured by evaluating the degree of animal sedation and mobility following the treatment described hereinabove, using a score of from 0 to 3. A score of 0 represents active and mobile animals, 1 represents calm and mobile animals, 2 represents calm and immobile animals and 3 represents completely ataxic and non-alert animals.

rats [3] = assay: D-Amphetamine-induced hyperactivity in rats; assay type: in vivo, rat; settings: i.p., amphetamine 2.5 mg/kg i.p.
Experimental: D-Amphetamine-induced hyperactivity in rats: The efficacy of the chemical conjugates of the present invention was studied using the D-amphetamine-induced hyperactivity and motility model, which is known as one of the most established animal models for schizophrenia.
Naïve Wistar male rats were placed in individual boxes. In each experiment 4 rats were studied. Perphenazine or equimolar doses of its chemical conjugate AN-168 were administered intraperitoneally (ip) to the rats 30 minutes prior to intraperitoneal administration of amphetamine (2.5 mg/kg), or 90 minutes prior to oral administration of amphetamine (2.5 mg/kg). The animals locomotor activity was assessed using two parameters: climbing attempts of the animal on the barrel walls (as big movements) and head movement of the animal (as small movements). Assessment was recorded every 15 minutes for two hours. Each animal was tested at each time point for 120 seconds.
The climbing behavior of the rats in each group was measured as described hereinabove.

NCCCC(=O)OCCN1CCN(CCCN2c3ccccc3Sc3ccc(Cl)cc32)CC1 [AN-168, Perphenazine 4-aminobutyrate Trihydrochloride]
IC50 (B16; Mus musculus, B16, linear regression of survival percentage): 26.8 ± 1.8 µM
effect on the proliferation of B16 murine melanoma cells (B16; representative experiment (FIG. 13)): relatively active as anti-proliferative drugs
IC50 (MES SA DX5 (MDR)): 17.2 µM
IC50 (3T3): 25 µM
time course of catalepsy (rats [1]; oral, 3.5-28 mg/kg AN 168 vs equimolar perphenazine, 4-6 hours (FIG. 8a)): consistent reduction in the cataleptic behavior at all concentrations
total catalepsy (rats [1]; oral, 5, 10, 20 mg/kg perphenazine, 7, 14, 28 mg/kg AN-168, 4-6 hours (FIGS. 9a, 9b)): consistently lower than that induced by perphenazine
time course of catalepsy, experiments conducted 3 months later (rats [1]; oral, 14 and 28 mg/kg AN 168, 4-6 hours (FIG. 8b)): higher catalepsy was induces as compared with the proceeding experiments
sedation and mobility score, 30 min (rats [2]; i.p., 5 mg/kg perphenazine, 7.5 mg/kg fluphenazine or equimolar conjugate, 30 min): 0
sedation and mobility score, 60 min (rats [2]; i.p., 5 mg/kg perphenazine, 7.5 mg/kg fluphenazine or equimolar conjugate, 60 min): 0
sedation and mobility score, 90 min (rats [2]; i.p., 5 mg/kg perphenazine, 7.5 mg/kg fluphenazine or equimolar conjugate, 90 min): 1
sedation and mobility score, 120 min (rats [2]; i.p., 5 mg/kg perphenazine, 7.5 mg/kg fluphenazine or equimolar conjugate, 120 min): 1
sedation and mobility score, 180 min (rats [2]; i.p., 5 mg/kg perphenazine, 7.5 mg/kg fluphenazine or equimolar conjugate, 180 min): 1
sedation and mobility score, 240 min (rats [2]; i.p., 5 mg/kg perphenazine, 7.5 mg/kg fluphenazine or equimolar conjugate, 240 min): 1
Sedation score (rats [2]; 3.5 mg/kg): 0
Sedation score (rats [2]; 7 mg/kg): 0
Sedation score (rats [2]; 14 mg/kg): 1
Sedation score (rats [2]; 28 mg/kg): 2
D-amphetamine-induced climbing behavior (rats [3]; AN-168 0.5 or 1.5 mg/kg, two hours (FIGS. 22, 23)): completely antagonized the climbing behavior induced by amphetamine even at low doses
D-amphetamine-induced head movements and other small body movement (rats [3]; two hours (FIGS. 24, 25)): inferior to that of perphenazine
